# Assay results: ChEMBL document CHEMBL4229379, “Synthesis and structure-activity relationship of novel bisindole amidines active against MDR Gram-positive and Gram-negative bacteria” (Eur J Med Chem, 2018)
# Tests used:
# [1] = system: Staphylococcus epidermidis; experiment: Antibacterial activity against methicillin-sensitive Staphylococcus epidermidis ATCC 12228 after 18 hrs by CLSI broth microdilution method; assay type: functional; details: ATCC 12228, 18 h
# [2] = system: Staphylococcus epidermidis; experiment: Antibacterial activity against methicillin-resistant Staphylococcus epidermidis 12-8 after 18 hrs by CLSI broth microdilution method; assay type: functional; details: 12-8, 18 h
# Staphylococcus aureus [3] = experiment: Antibacterial activity against methicillin-sensitive Staphylococcus aureus ATCC 29213 after 18 hrs by CLSI broth microdilution method; assay type: functional; details: ATCC 29213, 18 h
# Staphylococcus aureus [4] = experiment: Antibacterial activity against methicillin-resistant Staphylococcus aureus 12-33 after 18 hrs by CLSI broth microdilution method; assay type: functional; details: 12-33, 18 h
# Enterococcus faecalis [5] = experiment: Antibacterial activity against vancomycin-sensitive Enterococcus faecalis ATCC 29212 after 18 hrs by CLSI broth microdilution method; assay type: functional; details: ATCC 29212, 18 h
# Enterococcus faecalis [6] = experiment: Antibacterial activity against vancomycin-resistant Enterococcus faecalis 09-9 after 18 hrs by CLSI broth microdilution method; assay type: functional; details: 09-9, 18 h
# Enterococcus faecium [7] = experiment: Antibacterial activity against vancomycin-resistant Enterococcus faecium ATCC 700221 after 18 hrs by CLSI broth microdilution method; assay type: functional; details: ATCC 700221, 18 h
# Enterococcus faecium [8] = experiment: Antibacterial activity against vancomycin-sensitive Enterococcus faecium 12-3 after 18 hrs by CLSI broth microdilution method; assay type: functional; details: 12-3, 18 h
# Escherichia coli [9] = experiment: Antibacterial activity against extended-spectrum beta-lactamase deficient Escherichia coli ATCC 25922 after 18 hrs by CLSI broth microdilution method; assay type: functional; details: ATCC 25922, 18 h
# Escherichia coli [10] = experiment: Antibacterial activity against extended-spectrum beta-lactamase harboring Escherichia coli 12-15 after 18 hrs by CLSI broth microdilution method; assay type: functional; details: 12-15, 18 h
# Klebsiella pneumoniae [11] = experiment: Antibacterial activity against extended-spectrum beta-lactamase harboring Klebsiella pneumoniae ATCC 700603 after 18 hrs by CLSI broth microdilution method; assay type: functional; details: Klebsiella pneumoniae, 700603, 18 h
# Klebsiella pneumoniae [12] = experiment: Antibacterial activity against new delhi metallo-beta-lactamase-1 harboring Klebsiella pneumoniae ATCC BAA-2146 after 18 hrs by CLSI broth microdilution method; assay type: functional; details: ATCC BAA-2146, 18 h
# Klebsiella pneumoniae [13] = experiment: Antibacterial activity against extended-spectrum beta-lactamase harboring Klebsiella pneumoniae 12-8 after 18 hrs by CLSI broth microdilution method; assay type: functional; details: 12-8, 18 h
# Pseudomonas aeruginosa [14] = experiment: Antibacterial activity against Pseudomonas aeruginosa ATCC 27853 after 18 hrs by CLSI broth microdilution method; assay type: functional; details: ATCC 27853, 18 h
# [15] = system: Acinetobacter calcoaceticus; experiment: Antibacterial activity against Acinetobacter calcoaceticus ATCC 19606 after 18 hrs by CLSI broth microdilution method; assay type: functional; details: ATCC 19606, 18 h
# Enterobacter cloacae = experiment: Antibacterial activity against Enterobacter cloacae ATCC 43560 after 18 hrs by CLSI broth microdilution method; assay type: functional; details: ATCC 43560, 18 h
# Proteus mirabilis = experiment: Antibacterial activity against Proteus mirabilis 12-6 after 18 hrs by CLSI broth microdilution method; assay type: functional; details: 12-6, 18 h
# [16] = Cytotoxicity against HEK293T cells assessed as reduction in cell viability after 48 hrs by MTS assay; assay type: cell-based, HEK-293T; details: human
# [17] = system: Staphylococcus epidermidis; experiment: Antibacterial activity against methicillin-sensitive Staphylococcus epidermidis 12-6 after 18 hrs by CLSI broth microdilution method; assay type: functional; details: 12-6, 18 h
# Staphylococcus aureus [18] = experiment: Antibacterial activity against methicillin-resistant Staphylococcus aureus ATCC 33591 after 18 hrs by CLSI broth microdilution method; assay type: functional; details: ATCC 33591, 18 h
# Staphylococcus aureus [19] = experiment: Antibacterial activity against methicillin-sensitive Staphylococcus aureus 15 after 18 hrs by CLSI broth microdilution method; assay type: functional; details: Staphylococcus aureus, 15, 18 h
# Staphylococcus aureus [20] = experiment: Antibacterial activity against methicillin-sensitive Staphylococcus aureus 12-28 after 18 hrs by CLSI broth microdilution method; assay type: functional; details: 12-28, 18 h
# Enterococcus faecalis [21] = experiment: Antibacterial activity against vancomycin-resistant Enterococcus faecalis ATCC 51299 after 18 hrs by CLSI broth microdilution method; assay type: functional; details: ATCC 51299, 18 h
# Enterococcus faecalis [22] = experiment: Antibacterial activity against vancomycin-sensitive Enterococcus faecalis 12-5 after 18 hrs by CLSI broth microdilution method; assay type: functional; details: 12-5, 18 h
# Enterococcus faecium [23] = experiment: Antibacterial activity against vancomycin-resistant Enterococcus faecium 12-1 after 18 hrs by CLSI broth microdilution method; assay type: functional; details: 12-1, 18 h
# Escherichia coli [24] = experiment: Antibacterial activity against extended-spectrum beta-lactamase deficient Escherichia coli 1515 after 18 hrs by CLSI broth microdilution method; assay type: functional; details: Escherichia coli, 1515, 18 h
# Escherichia coli [25] = experiment: Antibacterial activity against extended-spectrum beta-lactamase deficient Escherichia coli 12-14 after 18 hrs by CLSI broth microdilution method; assay type: functional; details: 12-14, 18 h
# Klebsiella pneumoniae [26] = experiment: Antibacterial activity against extended-spectrum beta-lactamase deficient Klebsiella pneumoniae 7 after 18 hrs by CLSI broth microdilution method; assay type: functional; details: Klebsiella pneumoniae, 7, 18 h
# Klebsiella pneumoniae [27] = experiment: Antibacterial activity against extended-spectrum beta-lactamase deficient Klebsiella pneumoniae 12-4 after 18 hrs by CLSI broth microdilution method; assay type: functional; details: 12-4, 18 h
# Pseudomonas aeruginosa [28] = experiment: Antibacterial activity against Pseudomonas aeruginosa PAO1 after 18 hrs by CLSI broth microdilution method; assay type: functional; details: PAO1, 18 h
# Pseudomonas aeruginosa [29] = experiment: Antibacterial activity against Pseudomonas aeruginosa 12-16 after 18 hrs by CLSI broth microdilution method; assay type: functional; details: 12-16, 18 h
# Klebsiella aerogenes = experiment: Antibacterial activity against Enterobacter aerogenes ATCC 13048 after 18 hrs by CLSI broth microdilution method; assay type: functional; details: ATCC 13048, 18 h
# Serratia marcescens = experiment: Antibacterial activity against Serratia marcescens ATCC 21074 after 18 hrs by CLSI broth microdilution method; assay type: functional; details: ATCC 21074, 18 h
# Providencia rettgeri = experiment: Antibacterial activity against Providencia rettgeri ATCC 31052 after 18 hrs by CLSI broth microdilution method; assay type: functional; details: ATCC 31052, 18 h
# Proteus vulgaris = experiment: Antibacterial activity against Proteus vulgaris ATCC 29905 after 18 hrs by CLSI broth microdilution method; assay type: functional; details: ATCC 29905, 18 h
# [30] = system: Stenotrophomonas maltophilia; experiment: Antibacterial activity against Stenotrophomonas maltophilia ATCC 13636 after 18 hrs by CLSI broth microdilution method; assay type: functional; details: ATCC 13636, 18 h
# Citrobacter freundii = experiment: Antibacterial activity against Citrobacter freundii ATCC 43864 after 18 hrs by CLSI broth microdilution method; assay type: functional; details: ATCC 43864, 18 h
smiles,measurement,setting,value
c1cc2cc(-c3ccc(-c4cc5ccc(C6=NCCCN6)cc5[nH]4)cc3)[nH]c2cc1C1=NCCCN1,MIC,[1],0.25 µg/mL
same,MIC,[2],0.25 µg/mL
same,MIC,Staphylococcus aureus [3],0.25 µg/mL
same,MIC,Staphylococcus aureus [4],0.25 µg/mL
same,MIC,Enterococcus faecalis [5],0.5 µg/mL
same,MIC,Enterococcus faecalis [6],0.5 µg/mL
same,MIC,Enterococcus faecium [7],0.25 µg/mL
same,MIC,Enterococcus faecium [8],1 µg/mL
same,MIC,Escherichia coli [9],4 µg/mL
same,MIC,Escherichia coli [10],8 µg/mL
same,MIC,Klebsiella pneumoniae [11],32 µg/mL
same,MIC,Klebsiella pneumoniae [12],16 µg/mL
same,MIC,Klebsiella pneumoniae [13],8 µg/mL
same,MIC,Pseudomonas aeruginosa [14],4 µg/mL
same,MIC,[15],64 µg/mL
same,MIC,Enterobacter cloacae,8 µg/mL
same,MIC,Proteus mirabilis,128 µg/mL
same,CC50 at 48 h,[16],4.33 µg/mL
same,MIC,[17],0.25 µg/mL
same,MIC,Staphylococcus aureus [18],0.25 µg/mL
same,MIC,Staphylococcus aureus [19],0.25 µg/mL
same,MIC,Staphylococcus aureus [20],0.25 µg/mL
same,MIC,Enterococcus faecalis [21],0.5 µg/mL
same,MIC,Enterococcus faecalis [22],0.5 µg/mL
same,MIC,Enterococcus faecium [23],0.25 µg/mL
same,MIC,Escherichia coli [24],8 µg/mL
same,MIC,Escherichia coli [25],4 µg/mL
same,MIC,Klebsiella pneumoniae [26],8 µg/mL
same,MIC,Klebsiella pneumoniae [27],8 µg/mL
same,MIC,Pseudomonas aeruginosa [28],4 µg/mL
same,MIC,Pseudomonas aeruginosa [29],16 µg/mL
same,MIC,Klebsiella aerogenes,8 µg/mL
same,MIC,Serratia marcescens,16 µg/mL
same,MIC,Providencia rettgeri,8 µg/mL
same,MIC,Proteus vulgaris,16 µg/mL
same,MIC,[30],4 µg/mL
same,MIC,Citrobacter freundii,4 µg/mL
